# Source: patent publication US9125384B2, “Mouse having human leukemic stem cell and leukemic non-stem cell amplified therein, and method for production thereof” (RIKEN, priority 2007, dated 2015)
# Where “and” joins values, the source holds several entries; their conditions need not be identical. Equal entries are not always repeated. Entries after “also recorded” stand apart in the source; their conditions may differ.
# Assays:
# [1] = test system: human AML cells in BM cavity and endosteal surface; experiment: Histology of femoral bone sections after Ara-C (HE, TUNEL, immunostaining); type: in vivo, mouse (NOD/SCID/IL2rγ^null) engrafted with human AML; conditions: day 3 after Ara-C injection, anti-hCD34/hCD38/osteopontin staining
# Method: Paraformaldehyde-fixed, decalcified, paraffin-embedded sections were prepared from femurs of the recipients transplanted with sorted hCD34^+hCD38^− AML BM cells. Each section was subjected to hematoxylin and eosin (HE) staining. TUNEL staining was performed according to standard procedures using ApopTag peroxidase in situ apoptosis detection kit (Intergene, Purchase, N.Y.) by Biopathology Institute (Oita, Japan). To determine the localization of the CD34^+ cell populations, sections were immunostained with mouse anti-hCD34 antibody (Immunotech, France) and rat anti-mouse osteopontin antibody (Immuno-Biological Laboratories, Tokyo, Japan) were used. For the quantitative localization of LSCs, enodosteal and central regions were defined as the zones within or outside twelve cells from the endosteum, respectively, as described previously (Nilsson, S. K., Johnston, H. M. & Coverdale, J. A. Spatial localization of transplanted hemopoietic stem cells: inferences for the localization of stem cell niches. Blood 97, 2293-2299 (2001)). […] A total of 10,065 cells were counted from femoral and tibial sections. For localization post-engraftment analysis, a total of 24,973 cells were counted using femoral and tibial sections prepared from recipients of BM hCD34^+hCD38^− cells from Cases 4, 10 and 11. […]
# [2] = Adverse effect of Ara-C in vivo (hemoglobin, platelet count, plasma AST); conditions: 150 mg/kg Ara-C i.p.; day 8 after injection
# Method: Intraperitoneal (i.p.) injection of 150 mg/kg Ara-C (Biogenesis, Poole, UK) was performed in NOD/SCID/IL2rγ^null recipients transplanted with 10^4 purified BM […] cells from Cases 4 (n=2) and 7 (n=4) at 12-16 weeks post-transplantation. PB was obtained at the time of injection (day 0) and every four days thereafter and MNCs were labeled with mouse anti-hCD45 and anti-hCD33 monoclonal antibodies to determine the fraction of hCD45^+hCD33^+ cells using flow cytometry. The number of AML cells/ml PB was determined by multiplying the fraction of PB hCD45^+CD33^+ cells with total PB leukocyte count/ml in each recipient. Hemoglobin concentration, platelet count and plasma aspartate aminotransferase (AST) levels were analyzed prior to and at 8 days after Ara-C administration.
# [3] = test system: hCD34^+hCD38^− LSCs vs non-stem AML cell fractions; experiment: Post-chemotherapy apoptosis analysis of BM AML cell fractions (Annexin V/7AAD flow cytometry); type: in vivo, mouse (NOD/SCID/IL2rγ^null) engrafted with human AML; conditions: 150 mg/kg Ara-C i.p.; BM at day 3 after injection; n=3; p<0.05
# Method: NOD/SCID/IL2rγ^null recipients transplanted with 10^4-10^5 sorted BM hCD34^+hCD38^− cells from Cases 4, 7 and 11 at 12-20 weeks post-transplantation were injected with 150 mg/kg Ara-C i.p. At day 3 after injection, BM was analyzed for the presence of apoptotic cells by first dividing the hCD34^+hCD38^−, hCD34^+hCD38^+ and hCD34^− fractions within the hCD45^+ gate and quantifying the viable population in each fraction by Annexin V and 7-amino-actinomycin D (7AAD) staining (BD Immunocytometry, San Jose, Calif.). Annexin V^−7AAD^− hCD45^+hCD34^+hCD38^− cells were sorted and 10^3 cells were injected intravenously into irradiated newborn NOD/SCID/IL2rγ^null recipients.
# [4] = test system: human AML cells (hCD45^+hCD33^+); experiment: In vivo anti-leukemic cytotoxicity of Ara-C in AML-engrafted NOD/SCID/IL2rγ^null recipients (PB AML cell count); parameters: species or system mouse (NOD/SCID/IL2rγ^null) engrafted with human AML
structure (smiles),measurement,setting,value
"Nc1ccn([C@@H]2O[C@H](CO)[C@@H](O)[C@@H]2O)c(=O)n1 [Ara-C, cytosine arabinoside]",localization of apoptotic and surviving cells in femoral bone sections,[1],preferential killing of cells in the middle of the BM cavity; also recorded: remain at the endosteal surface abutting murine osteoblasts; also recorded: marked segregation of apoptotic cells in the center of the bone marrow cavity
same,"hematologic adverse effects (hemoglobin concentration, platelet count)",[2],Typical hematologic adverse effects; also recorded: anemia and thrombocytopenia in all treated mice
same,chemosensitivity of hCD34^+hCD38^− LSCs compared with non-stem AML cell fractions (apoptosis),[3],relative resistance to Ara-C; also recorded: more resistant to Ara-C; also recorded: relatively resistant to Ara-C treatment
same,time of nadir of AML count,"[4]; single 150 mg/kg Ara-C i.p. on day 0, PB",8 to 12 days
same,time of recovery of PB AML cell count (relapse),"[4]; single 150 mg/kg Ara-C i.p. on day 0, PB, 150 mg/kg",28 to 32 days and 16 to 28 days
same,PB AML burden (hCD45^+hCD33^+ cell count per ml of PB),"[4]; single 150 mg/kg Ara-C i.p., 12-16 weeks post-transplantation, monitored every four days, 150 mg/kg",rapid decline in AML burden; also recorded: markedly reduced
